Results reported in patent US11365196B2, “FGFR inhibitor and application thereof” (Betta Pharmaceuticals Co., Ltd., priority 2017, dated 2022).
Like-named read-outs stand apart in the source and are kept apart here.

What was measured:
FGFR4 = FGFR4 (Homo sapiens (Human), UniProt P22455); assay: Kinase assay Method 1, mobility shift assay; format: biochemical; details: ATP at Km, numeric values, read-out: IC50(nM) value of compounds FGFR4
NCI-H1581 cells = assay: Cell proliferation assay on NCI-H1581 (Table 7); format: cell-based, human; details: Homo sapiens
Excerpt: Test method: adding the appropriate volume of whole medium and the cells was suspended.

FGFR1 = FGFR1 (Homo sapiens (Human), UniProt P11362); assay: Kinase assay Method 1, mobility shift assay; details: read-out: IC50(nM) value of compounds FGFR1; mobility shift assay, ATP at Km; class symbols
Procedure: Method 1: The inhibitory activity of some compounds of the present disclosure against FGFR1, FGFR2, FGFR3, FGFR4, KDR was tested by mobility shift assay (concentration of ATP is Km value).
Preparing of compounds: dilute test compounds to specific concentration using 100% DMSO

[1] = NCI-H1581, read-out: IC50(nM) value of compounds on NCI-H1581 cells
[2] = NCI-H1581, CellTiter 96 AQueous (144 hrs) or CellTiter Glo (96 hrs), class symbols, read-out: IC50(nM) value of compounds on NCI-H1581 cells

Chain of FGFR1 (P11362 22-822): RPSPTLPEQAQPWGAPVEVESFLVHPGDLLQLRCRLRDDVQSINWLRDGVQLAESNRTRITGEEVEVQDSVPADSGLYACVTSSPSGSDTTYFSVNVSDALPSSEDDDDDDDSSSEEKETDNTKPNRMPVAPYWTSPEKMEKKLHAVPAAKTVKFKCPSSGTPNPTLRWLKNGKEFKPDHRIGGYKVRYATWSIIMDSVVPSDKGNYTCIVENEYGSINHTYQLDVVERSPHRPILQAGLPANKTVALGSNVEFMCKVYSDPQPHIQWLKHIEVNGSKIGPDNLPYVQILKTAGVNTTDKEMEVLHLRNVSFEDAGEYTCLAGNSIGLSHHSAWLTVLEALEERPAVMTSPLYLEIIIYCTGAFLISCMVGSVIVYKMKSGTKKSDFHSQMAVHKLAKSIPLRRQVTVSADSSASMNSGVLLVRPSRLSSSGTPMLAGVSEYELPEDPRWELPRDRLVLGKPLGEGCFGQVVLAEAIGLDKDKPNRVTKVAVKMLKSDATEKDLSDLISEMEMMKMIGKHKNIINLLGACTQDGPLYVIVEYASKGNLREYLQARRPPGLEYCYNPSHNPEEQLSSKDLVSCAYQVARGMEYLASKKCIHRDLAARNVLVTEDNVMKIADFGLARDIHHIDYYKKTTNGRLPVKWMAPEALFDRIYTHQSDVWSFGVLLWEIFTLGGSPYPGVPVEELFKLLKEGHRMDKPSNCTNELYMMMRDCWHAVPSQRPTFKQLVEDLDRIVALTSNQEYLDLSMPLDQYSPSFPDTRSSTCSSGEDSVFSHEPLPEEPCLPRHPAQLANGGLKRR
Chain of FGFR4 (P22455 22-802): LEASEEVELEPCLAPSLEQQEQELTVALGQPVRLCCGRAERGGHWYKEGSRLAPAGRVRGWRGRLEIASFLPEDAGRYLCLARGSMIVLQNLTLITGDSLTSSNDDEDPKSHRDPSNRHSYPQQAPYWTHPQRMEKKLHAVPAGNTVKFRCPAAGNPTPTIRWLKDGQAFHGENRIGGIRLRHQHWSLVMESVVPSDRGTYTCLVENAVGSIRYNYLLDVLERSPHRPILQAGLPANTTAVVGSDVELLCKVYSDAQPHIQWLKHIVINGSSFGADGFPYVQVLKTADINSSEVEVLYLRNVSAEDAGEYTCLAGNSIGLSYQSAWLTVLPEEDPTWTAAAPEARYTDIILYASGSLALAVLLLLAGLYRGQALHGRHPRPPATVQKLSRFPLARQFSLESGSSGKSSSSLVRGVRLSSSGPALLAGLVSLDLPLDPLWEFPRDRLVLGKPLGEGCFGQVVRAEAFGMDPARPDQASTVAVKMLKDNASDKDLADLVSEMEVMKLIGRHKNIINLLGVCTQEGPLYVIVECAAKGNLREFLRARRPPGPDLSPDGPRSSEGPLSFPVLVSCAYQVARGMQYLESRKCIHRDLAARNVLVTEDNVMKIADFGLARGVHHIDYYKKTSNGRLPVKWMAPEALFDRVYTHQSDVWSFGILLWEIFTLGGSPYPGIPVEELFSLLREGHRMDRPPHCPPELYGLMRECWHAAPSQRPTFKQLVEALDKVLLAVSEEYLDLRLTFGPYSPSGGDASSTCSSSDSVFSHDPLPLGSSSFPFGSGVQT

SMILES | IC50 (NCI-H1581 cells; [2]) | IC50 (FGFR1) | IC50 (FGFR4) | IC50 (NCI-H1581 cells; [1])
COc1cc(OC)c(Cl)c(-c2cc3cnc(Nc4ccc(CN5CCN(C)CC5)cc4)nc3n3cnnc23)c1 [Compound 46, 6-(2-chloro-3,5-dimethoxyphenyl)-N-(4-((4-methylpiperazin-1-yl)methyl)phenyl)-[1,2,4]triazolo[4′,3′:1,6]pyrido[2,3-d]pyrimidin-2-amine] | – | – | 56 nM | 2.4 nM
COc1cc(OC)c(Cl)c(-c2cc3cnc(Nc4ccc(N5CC6CCC(C5)N6)cc4)nc3n3cnnc23)c1 [Compound 51, N-(4-(3,8-diazabicyclo[3.2.1]octan-3-yl)phenyl)-6-(2-chloro-3,5-dimethoxyphenyl)[1,2,4]triazolo[4′,3′:1,6]pyrido[2,3-d]pyrimidin-2-amine] | – | – | 42 nM | 1.4 nM
COc1cc(OC)c(Cl)c(-c2cc3cnc(Nc4ccc5c(c4)CCNC5)nc3n3cnnc23)c1 [Compound 53, 6-(2-chloro-3,5-dimethoxyphenyl)-N-(1,2,3,4-tetrahydroisoquinolin-6-yl)-[1,2,4]triazolo[4′,3′:1,6]pyrido[2,3-d]pyrimidin-2-amine] | – | – | 14 nM | 0.7 nM
COc1cc(OC)c(Cl)c(-c2cc3cnc(Nc4ccc(N5CCN(C(=O)N(C)C)CC5)cc4)nc3n3cnnc23)c1 [Compound 107, 4-(4-((6-(2-chloro-3,5-dimethoxyphenyl)-[1,2,4]triazolo[4′,3′:1,6]pyrido[2,3-d]pyrimidin-2-yl)amino)phenyl)-N,N-dimethylpiperazine-1-carboxamide] | 1 to 10 nM | < 1 nM | – | –
COc1cc(OC)c(Cl)c(-c2cc3cnc(Nc4ccc(N5CC6(CN(C(=O)N(C)C)C6)C5)cc4)nc3n3cnnc23)c1 [Compound 108, 6-(4-((6-(2-chloro-3,5-dimethoxyphenyl)-[1,2,4]triazolo[4′,3′:1,6]pyrido[2,3-d]pyrimidin-2-yl)amino)phenyl)-N,N-dimethyl-2,6-diazaspiro[3.3]heptane-2-carboxamide] | 10 to 100 nM | > 10 nM | – | –
C=CC(=O)N1CCN(CCCc2nnc3c(-c4cc(OC)cc(OC)c4Cl)cc4cnc(NC)nc4n23)CC1 [Compound 113, 1-(4-((6-(2-chloro-3,5-dimethoxyphenyl)-2-(methylamino)-[1,2,4]triazolo[4′,3′:1,6]pyrido[2,3-d]pyrimidin-9-yl)propyl)piperazin-1-yl)prop-2-en-1-one] | 10 to 100 nM | > 10 nM | – | –
C=CC(=O)N1CCN(CCCc2nc3c(-c4cc(OC)cc(OC)c4Cl)cc4cnc(NC)nc4n3n2)CC1 [Compound 115, 1-(4-(3-(4-(2-chloro-3,5-dimethoxyphenyl)-8-(methylamino)-[1,2,4]triazolo[1′,5′:1,6]pyrido[2,3-d]pyrimidin-2-yl)propyl)piperazin-1-yl)prop-2-en-1-one] | – | – | 6.8 nM | –

Now from value to compound, other results behind:

IC50 (NCI-H1581 cells; [2]) | IC50 (FGFR1) | SMILES | IC50 (FGFR4) | IC50 (NCI-H1581 cells; [1])
1 to 10 nM | < 1 nM | COc1cc(OC)c(Cl)c(-c2cc3cnc(Nc4ccc(N5CCN(C(C)=O)CC5)cc4)nc3n3cnnc23)c1 [Compound 106, 6-(2-chloro-3,5-dimethoxyphenyl)-N-(4-(4-acetylpiperazine-1-yl)phenyl)-[1,2,4]triazolo[4′,3′:1,6]pyrido[2,3-d]pyrimidin-2-amine] | – | –
10 to 100 nM | > 100 nM | C=CC(=O)Nc1ccc(Cc2nc3c(-c4cc(OC)cc(OC)c4Cl)cc4cnc(NCCN5CCOCC5)nc4n3n2)cc1 [Compound 112, N-(4-((4-(2-chloro-3,5-dimethoxyphenyl)-8-((2-morpholinoethyl)amino)-[1,2,4]triazolo[1′,5′:1,6]pyrido[2,3-d]pyrimidin-2-yl)methyl)phenyl)acrylamide] | – | –
> 100 nM | > 100 nM | C=CC(=O)N1CCN(CCc2nnc3c(-c4cc(OC)cc(OC)c4Cl)cc4cnc(NC)nc4n23)CC1 [Compound 114, 1-(4-(2-(6-(2-chloro-3,5-dimethoxyphenyl)-2-(methylamino)-[1,2,4]triazolo[4′,3′:1,6]pyrido[2,3-d]pyrimidin-9-yl)ethyl)piperazin-1-yl)prop-2-en-1-one] | – | –
